Experimental data as given in US8492377B2, “MTKI quinazoline derivatives” (Janssen Pharmaceutica NV, priority 2006, dated 2013).

Legend:
human Fyn = human Fyn (Homo sapiens, UniProt P06241); assay: C2: Fyn kinase assay; type: biochemical; details: 5 ng human Fyn, 1.0 μM unlabeled ATP, poly(Glu,Tyr) 4:1, 25° C., 10 minutes; for IC50: read-out: C2: Fyn kinase pIC50 (converted)
Description: In this assay the Fyn kinase reaction is performed at 25° C. for 10 minutes in a 96-well microtiterplate. The 25 μl reaction volume contains 8 mM MOPS pH 7.0, 20 mM Mg-acetate, 0.2 mM Na2EDTA, 0.5 mM MnCl2, 1.0 μM unlabeled ATP, 0.2 μCi AT^33P, 20 ng poly(Glu,Tyr) 4:1 and 5 ng human Fyn.
(§1) The reaction is stopped by adding 5 μl of a 3% phosphoric acid solution. 5 μl of the reaction mixture is then spotted onto a Filtermat A filter (Wallac) and washed 3 times for 5 min. in 75 mM phosphoric acid and 1 time for 5 min. in methanol prior to drying and scintillation counting.

human Src = human Src (Homo sapiens, UniProt P12931); assay: C1: c-Src filter assay; type: biochemical; details: 5 ng human Src, 1.0 μM unlabeled ATP, poly(Glu,Tyr) 4:1, 25° C., 10 minutes; read-out: C1: c-SRC filter pIC50 (converted)
human Src, sequence (P12931 whole entry): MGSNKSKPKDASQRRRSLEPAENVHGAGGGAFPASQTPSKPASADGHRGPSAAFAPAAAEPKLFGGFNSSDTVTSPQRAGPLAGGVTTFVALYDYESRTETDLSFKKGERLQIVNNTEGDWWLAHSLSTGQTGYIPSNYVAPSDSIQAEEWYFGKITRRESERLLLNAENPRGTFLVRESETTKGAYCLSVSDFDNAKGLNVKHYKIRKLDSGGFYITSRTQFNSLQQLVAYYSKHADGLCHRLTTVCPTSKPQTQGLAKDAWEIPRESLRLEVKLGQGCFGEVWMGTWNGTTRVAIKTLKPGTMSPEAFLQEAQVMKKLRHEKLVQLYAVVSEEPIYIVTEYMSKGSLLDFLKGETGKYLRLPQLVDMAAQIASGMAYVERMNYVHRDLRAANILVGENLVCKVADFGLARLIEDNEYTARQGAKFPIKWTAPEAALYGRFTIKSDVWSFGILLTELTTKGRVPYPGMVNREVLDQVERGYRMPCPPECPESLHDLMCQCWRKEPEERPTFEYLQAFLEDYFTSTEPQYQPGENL
Description: The in vitro inhibition of c-Src kinase was assessed using the glass-fiber filter technology as described by Davies, S. P. et al., Biochem J. (2000), 351; p. 95-105.
In the glass-fiber filter technology the activity of the kinase is measured using an appropriate substrate that is incubated with the aforementioned kinase protein in the presence of (^33P) radiolabeled ATP. (^33P) Phosporylation of the substrate is subsequently measured as radioactivity bound on a glassfiber-filter.
In an alternative filter based assay the final kinase activity was assessed using a phosphostorage screen instead of scintilation counting.
In this assay the Src kinase reaction is performed at 25° C. for 10 minutes in a 96-well microtiterplate. The 25 μl reaction volume contains 8 mM MOPS pH 7.0, 20 mM Mg-acetate, 0.2 mM Na2EDTA, 0.5 mM MnCl2, 1.0 μM unlabeled ATP, 0.2 μCi AT^33P, 20 ng poly(Glu,Tyr) 4:1 and 5 ng human Src.
as §1, with “quantification on the Typhoon (Amersham) using a phosphostorage screen.” for “scintillation counting.”

human Fyn, sequence (P06241 whole entry): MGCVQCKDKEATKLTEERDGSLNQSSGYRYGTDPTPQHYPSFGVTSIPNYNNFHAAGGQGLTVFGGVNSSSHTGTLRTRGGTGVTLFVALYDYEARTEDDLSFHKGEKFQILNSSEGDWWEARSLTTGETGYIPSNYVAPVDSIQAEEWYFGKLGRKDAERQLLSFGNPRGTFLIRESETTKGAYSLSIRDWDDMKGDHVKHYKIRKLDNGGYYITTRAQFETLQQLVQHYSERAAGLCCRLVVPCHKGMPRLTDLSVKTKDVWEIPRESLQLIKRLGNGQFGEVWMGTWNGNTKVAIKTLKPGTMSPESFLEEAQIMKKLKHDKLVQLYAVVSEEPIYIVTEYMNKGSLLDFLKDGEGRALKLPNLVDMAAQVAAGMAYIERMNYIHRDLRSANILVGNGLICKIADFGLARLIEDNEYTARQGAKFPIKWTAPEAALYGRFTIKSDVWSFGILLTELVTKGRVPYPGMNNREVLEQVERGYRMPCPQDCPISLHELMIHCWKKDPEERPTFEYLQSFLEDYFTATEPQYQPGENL

Row | Compound | IC50 (human Fyn) | IC50 (human Src) | C2: Fyn kinase pIC50 (human Fyn)
1 | COc1cc2ncnc3c2cc1OCCCCCN(C(=O)OCc1ccccc1)Cc1ccc2c(c1N3)OCO2 [Compound A8] | 204 nM | – | –
2 | COc1cc2ncnc3c2cc1OCCCCCNCc1ccc2c(c1N3)OCO2 [Compound A9] | < 1000 nM | 2290 nM | –
3 | COc1cc2ncnc3c2cc1OCCCCCNCc1ccc2c(c1N3)OCO2 [Compound A10] | – | 2570 nM | >6
4 | COc1cc2ncnc3c2cc1OCCCCCN(C)Cc1ccc2c(c1N3)OCO2 [Compound A11] | 18.2 nM | – | –
5 | CN1CCCCCOc2cc3c(ncnc3cc2O)Nc2c(ccc3c2OCO3)C1 [Compound A12] | 34.7 nM | > 10000 nM | –
6 | COc1cc2ncnc3c2cc1OCCCN(S(=O)(=O)c1ccccc1[N+](=O)[O-])CCN(C)Cc1ccc2c(c1N3)OCO2 [Compound A20] | 6.92 nM | 186 nM | –
7 | COc1cc2ncnc3c2cc1OCCCNCCN(C)Cc1ccc2c(c1N3)OCO2 [Compound A22] | 39.8 nM | 3240 nM | –
8 | CN1CCNCCCOc2cc3c(ncnc3cc2O)Nc2c(ccc3c2OCO3)C1 [Compound A23] | > 1000 nM | > 10000 nM | –
9 | CN1CCN(C(=O)OC(C)(C)C)CCCOc2cc3c(ncnc3cc2O)Nc2c(ccc3c2OCO3)C1 [Compound A24] | > 1000 nM | > 10000 nM | –
10 | CN1CCN(C(=O)OC(C)(C)C)CCCOc2cc3c(ncnc3cc2OC(=O)OC(C)(C)C)Nc2c(ccc3c2OCO3)C1 [Compound A25] | > 1000 nM | – | –
11 | CN1CCN(CCCOc2cc3ncnc4c3cc2OCCCN(C(=O)OC(C)(C)C)CCN(C)Cc2ccc3c(c2N4)OCO3)CC1 [Compound A27] | 22.4 nM | 2240 nM | –
12 | COCCOCCOc1cc2ncnc3c2cc1OCCCN(C(=O)OC(C)(C)C)CCN(C)Cc1ccc2c(c1N3)OCO2 [Compound A28] | < 1000 nM | > 10000 nM | –
13 | CN(CCO)CCCOc1cc2ncnc3c2cc1OCCCN(C(=O)OC(C)(C)C)CCN(C)Cc1ccc2c(c1N3)OCO2 [Compound A29] | 43.7 nM | 2630 nM | –
14 | COc1cc2ncnc3c2cc1OCCCNC(=O)[C@H](C)N(C)Cc1ccc2c(c1N3)OCO2 [Compound A38] | 245 nM | 3310 nM | –
15 | C[C@H]1C(=O)NCCCOc2cc3c(ncnc3cc2O)Nc2c(ccc3c2OCO3)CN1C [Compound A40] | > 1000 nM | > 10000 nM | –
16 | C[C@H]1C(=O)NCCCOc2cc3c(ncnc3cc2OCCCN2CCOCC2)Nc2c(ccc3c2OCO3)CN1C [Compound A42] | 64.6 nM | – | –
17 | CN1CCN(C(=O)OC(C)(C)C)CCCOc2cc3c(ncnc3cc2OCCCN2CCC(S(C)(=O)=O)CC2)Nc2c(ccc3c2OCO3)C1 [Compound A54] | 69.2 nM | – | –
18 | CN1CCCCCOc2cc3c(ncnc3cc2OCCCN)Nc2c(ccc3c2OCO3)C1 [Compound A57] | 18.2 nM | 933 nM | –
19 | COc1cc2ncnc3c2cc1OCCCCCN(C(=O)OCc1ccccc1)Cc1cc(Oc2ccc(C)nc2)c2c(c1N3)OCO2 [Compound A68] | > 1000 nM | – | –

Row | Compound | IC50 (human Fyn) | IC50 (human Src) | C2: Fyn kinase pIC50 (human Fyn)
20 | CN1CCCCCOc2cc3c(ncnc3cc2OC[C@@H](O)CN2CCCCC2)Nc2c(ccc3c2OCO3)C1 [Compound B1] | < 1 nM | 537 nM | –
21 | COCCOc1cc2ncnc3c2cc1OCCCCCN(C)Cc1ccc2c(c1N3)OCO2 [Compound B2] | 7.76 nM | 1100 nM | –
22 | CN1CCN(CCCOc2cc3ncnc4c3cc2OCCCNCCN(C)Cc2ccc3c(c2N4)OCO3)CC1 [Compound B3] | 11.7 nM | 447 nM | –
23 | COCCOCCOc1cc2ncnc3c2cc1OCCCNCCN(C)Cc1ccc2c(c1N3)OCO2 [Compound B4] | 23.4 nM | 1480 nM | –
24 | CN(CCO)CCCOc1cc2ncnc3c2cc1OCCCNCCN(C)Cc1ccc2c(c1N3)OCO2 [Compound B5] | 20.9 nM | 501 nM | –
25 | C[C@H]1C(=O)NCCCOc2cc3c(ncnc3cc2OCCCN2CCOCC2)Nc2c(ccc3c2OCO3)CN1C [Compound B6] | 38 nM | – | –
26 | COCCOCCOc1cc2ncnc3c2cc1OCCCNC(=O)[C@H](C)N(C)Cc1ccc2c(c1N3)OCO2 [Compound B7] | 91.2 nM | – | –
27 | COc1cc2ncnc3c2cc1OCCCCCNCc1cc(Br)c2c(c1N3)OCO2 [Compound B8] | 16.6 nM | 6460 nM | –
28 | COc1cc2ncnc3c2cc1OCCCN(C)CCN(C)Cc1ccc2c(c1N3)OCO2 [Compound B10] | 21.9 nM | 1910 nM | –
29 | CN1CCN(CCCOc2cc3ncnc4c3cc2OCCCCCN(C)Cc2ccc3c(c2N4)OCO3)CC1 [Compound B12] | 0.275 nM | 263 nM | –
30 | CN1CCNCCCOc2cc3c(ncnc3cc2OCCCN2CCC(S(C)(=O)=O)CC2)Nc2c(ccc3c2OCO3)C1 [Compound B14] | 19.5 nM | – | –
31 | Brc1cc2c(c3c1OCO3)Nc1ncnc3cc(OCCCN4CCCC4)c(cc13)OCCCCCNC2 [Compound B27] | < 1000 nM | – | –
32 | CN1CCN(CCCOc2cc3ncnc4c3cc2OCCCCCNCc2cc(Br)c3c(c2N4)OCO3)CC1 [Compound B28] | < 1000 nM | – | –
33 | CCOC(CCOc1cc2ncnc3c2cc1OCCCCCN(C)Cc1ccc2c(c1N3)OCO2)OCC [Compound B32] | 38 nM | – | –
34 | COCCOc1cc2ncnc3c2cc1OCCCCCNCc1ccc2c(c1N3)OCO2 [Compound B33] | 13.2 nM | – | –
35 | C[C@H]1C(=O)NCCCOc2cc3c(ncnc3cc2OCCCN2CCS(=O)(=O)CC2)Nc2c(ccc3c2OCO3)CN1C [Compound B36] | 38 nM | – | –
36 | COCCNCCCOc1cc2ncnc3c2cc1OCCCNC(=O)[C@H](C)N(C)Cc1ccc2c(c1N3)OCO2 [Compound B38] | 138 nM | – | –
37 | C[C@H]1C(=O)NCCCOc2cc3c(ncnc3cc2OCCCNCCO)Nc2c(ccc3c2OCO3)CN1C [Compound B39] | 129 nM | – | –
38 | C[C@H]1C(=O)NCCCOc2cc3c(ncnc3cc2OCCCN(C)CCO)Nc2c(ccc3c2OCO3)CN1C [Compound B40] | 214 nM | – | –

Row | Compound | IC50 (human Fyn) | IC50 (human Src) | C2: Fyn kinase pIC50 (human Fyn)
39 | COCCOc1cc2ncnc3c2cc1OCCCNC(=O)[C@H](C)N(C)Cc1ccc2c(c1N3)OCO2 [Compound B41] | 81.3 nM | – | –
40 | C[C@H]1C(=O)NCCCOc2cc3c(ncnc3cc2OC[C@@H]2CO2)Nc2c(ccc3c2OCO3)CN1C [Compound B42] | 282 nM | – | –
41 | Oc1cc2ncnc3c2cc1OCCCCCNCc1cc(Br)c2c(c1N3)OCO2 [Compound B44] | 209 nM | – | –
42 | CN1CCCCCOc2cc3c(ncnc3cc2O)Nc2c(cc(Br)c3c2OCO3)C1 [Compound B48] | 89.1 nM | – | –
43 | COc1cc2ncnc3c2cc1OCCCCN(C(=O)OCc1ccccc1)CCc1ccc2c(c1N3)OCO2 [Compound B50] | > 1000 nM | – | –
44 | COc1cc2ncnc3c2cc1OCCCCN(C)CCc1ccc2c(c1N3)OCO2 [Compound B53] | 110 nM | – | –
45 | C[C@H]1C(=O)NCCCOc2cc3c(ncnc3cc2OCCCN2CCN(CCO)CC2)Nc2c(ccc3c2OCO3)CN1C [Compound B54] | 51.3 nM | – | –
46 | C[C@H]1C(=O)NCCCOc2cc3c(ncnc3cc2OCCCN2CCC(CCS(C)(=O)=O)CC2)Nc2c(ccc3c2OCO3)CN1C [Compound B55] | 115 nM | – | –
47 | C[C@H]1C(=O)NCCCOc2cc3c(ncnc3cc2OCCCN2CCC(S(C)(=O)=O)CC2)Nc2c(ccc3c2OCO3)CN1C [Compound B56] | 85.1 nM | – | –
48 | C[C@H]1C(=O)NCCCOc2cc3c(ncnc3cc2OCCCN2CCN(C)CC2)Nc2c(ccc3c2OCO3)CN1C [Compound B57] | 26.3 nM | – | –
49 | C[C@H]1C(=O)NCCCOc2cc3c(ncnc3cc2OCCCN2CCN(C)CC2)Nc2c(ccc3c2OCO3)CN1C [Compound B58] | 33.1 nM | – | –
50 | C[C@H]1C(=O)NCCCOc2cc3c(ncnc3cc2OCCCN2CCN(C(=O)CCS(C)(=O)=O)CC2)Nc2c(ccc3c2OCO3)CN1C [Compound B59] | 42.7 nM | – | –
51 | CC(=O)NCCN1CCN(CCCOc2cc3ncnc4c3cc2OCCCNC(=O)[C@H](C)N(C)Cc2ccc3c(c2N4)OCO3)CC1 [Compound B60] | 37.2 nM | – | –
52 | C[C@H]1C(=O)NCCCOc2cc3c(ncnc3cc2OC[C@@H](O)CN2CCC(O)CC2)Nc2c(ccc3c2OCO3)CN1C [Compound B62] | 200 nM | – | –
53 | CN1CCCCCOc2cc3c(ncnc3cc2OCCCN2CCN(CCO)CC2)Nc2c(cc(Br)c3c2OCO3)C1 [Compound B66] | < 1000 nM | – | –
54 | CN(CCO)CCCOc1cc2ncnc3c2cc1OCCCCCN(C)Cc1cc(Br)c2c(c1N3)OCO2 [Compound B72] | < 1000 nM | – | –
55 | COc1cc2ncnc3c2cc1OCCCNC(=O)[C@H](C)N(C)Cc1cc(Cl)c2c(c1N3)OCO2 [Compound B74] | 69.2 nM | – | –
56 | COc1cc2ncnc3c2cc1OCCCN(C)C(=O)[C@H](C)N(C)Cc1cc(Cl)c2c(c1N3)OCO2 [Compound B76] | 316 nM | – | –
57 | COc1cc2ncnc3c2cc1OCCCN(C)C(=O)[C@H](C)N(C)Cc1ccc2c(c1N3)OCO2 [Compound B78] | > 1000 nM | – | –
